Patent publication US12077503B2, “Substituted cyclic amides and their use as herbicides” (FMC CORPORATION, priority 2015, dated 2024)

Experiments:
Assay type in all cases: in vivo
[1] = system: barnyardgrass (Echinochloa crus-galli); test: Test G Pre-Emergence Protocol; settings: Echinochloa crus-galli, pre-emergence, 312 h, evaluated after 13 days
Method in brief: (§1)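 Glasshouse pre-emergence test: soil-sown seeds, sprayed after 1 d at 15.625, 62.5 or 250 g/ha. Conditions 24/16° C day/night, 14 h light, 65% humidity, watering twice daily. Rating 13 d post-spray (100 = total damage).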

corn (Zea mays) [2] = test: Test G Pre-Emergence Protocol; settings: Zea mays, pre-emergence, 312 h, evaluated after 13 days
Method in brief: as §1

[3] = system: giant foxtail (Setaria faberi); test: Test G Pre-Emergence Protocol; settings: Setaria faberi, pre-emergence, 312 h, evaluated after 13 days
Method in brief: as §1

[4] = system: ivy-leaved morning glory (Ipomoea hederacea); test: Test G Pre-Emergence Protocol; settings: Ipomoea, pre-emergence, 312 h, evaluated after 13 days
Method in brief: as §1

[5] = system: redroot pigweed (Amaranthus retroflexus); test: Test G Pre-Emergence Protocol; settings: Amaranthus retroflexus, pre-emergence, 312 h, evaluated after 13 days
Method in brief: as §1

[6] = system: velvetleaf (Abutilon theophrasti); test: Test G Pre-Emergence Protocol; settings: Abutilon theophrasti, pre-emergence, 312 h, evaluated after 13 days
Method in brief: as §1

[7] = system: barnyardgrass (Echinochloa crus-galli); test: Test G Post-Emergence Protocol; settings: Echinochloa crus-galli, post-emergence, 312 h
Method in brief: (§2)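 Scores run 0 (no damage) to 100 (total damage) and were taken 13 days after spraying. Plants had been raised in pots for 8 days under glasshouse control (24/16 °C, 14 h photoperiod, 65% humidity) and then treated at 15.625, 62.5 or 250 g/ha.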

corn (Zea mays) [8] = test: Test G Post-Emergence Protocol; settings: Zea mays, post-emergence, 312 h
Method in brief: as §2

[9] = system: giant foxtail (Setaria faberi); test: Test G Post-Emergence Protocol; settings: Setaria faberi, post-emergence, 312 h
Method in brief: as §2

[10] = system: ivy-leaved morning glory (Ipomoea hederacea); test: Test G Post-Emergence Protocol; settings: Ipomoea, post-emergence, 312 h
Method in brief: as §2

[11] = system: redroot pigweed (Amaranthus retroflexus); test: Test G Post-Emergence Protocol; settings: Amaranthus retroflexus, post-emergence, 312 h
Method in brief: as §2

[12] = system: velvetleaf (Abutilon theophrasti); test: Test G Post-Emergence Protocol; settings: Abutilon theophrasti, post-emergence, 312 h
Method in brief: as §2

## Cc1ccc(NC(=O)[C@H]2C(=O)N(C)C[C@@H]2c2ccc(C(F)(F)F)cc2)c(C)c1 (racemic) [Compound 1410]
[1]; 15.625 g ai/ha, read-out: Barnyard grass damage rating (100=total damage to plant; 0=no damage to plant)
  pest or weed control at 15.625 g/ha: 0%
[1]; 62.5 g ai/ha, 100=total damage to plant, 0=no damage to plant, read-out: plant damage rating, Barnyardgrass
  pest or weed control at 62.5 g/ha: 0%
[1]; 250 g ai/ha, read-out: Barnyardgrass damage rating (100=total damage to plant; 0=no damage to plant)
  pest or weed control at 250 g/ha: 20%
Corn (Zea mays) [2]; 15.625 g ai/ha, read-out: Corn damage rating (100=total damage to plant; 0=no damage to plant)
  plant injury at 15.625 g/ha: 0%
Corn (Zea mays) [2]; 62.5 g ai/ha, 100=total damage to plant, 0=no damage to plant, read-out: plant damage rating, Corn
  plant injury at 62.5 g/ha: 0%
Corn (Zea mays) [2]; 250 g ai/ha, read-out: Corn damage rating (100=total damage to plant; 0=no damage to plant)
  plant injury at 250 g/ha: 0%
[3]; 15.625 g ai/ha, read-out: Foxtail, Giant damage rating (100=total damage to plant; 0=no damage to plant)
  pest or weed control at 15.625 g/ha: 0%
[3]; 62.5 g ai/ha, 100=total damage to plant, 0=no damage to plant, read-out: plant damage rating, Foxtail, Giant
  pest or weed control at 62.5 g/ha: 0%
[3]; 250 g ai/ha, read-out: Foxtail, Giant damage rating (100=total damage to plant; 0=no damage to plant)
  pest or weed control at 250 g/ha: 80%
[4]; 15.625 g ai/ha, read-out: Morning-glory, Ivy-leaved damage rating (100=total damage to plant; 0=no damage to plant)
  pest or weed control at 15.625 g/ha: 0%
[4]; 62.5 g ai/ha, 100=total damage to plant, 0=no damage to plant, read-out: plant damage rating, Morningglory, Ivy-leaved
  pest or weed control at 62.5 g/ha: 0%
[4]; 250 g ai/ha, read-out: Morningglory, Ivy-leaved damage rating (100=total damage to plant; 0=no damage to plant)
  pest or weed control at 250 g/ha: 10%
[5]; 15.625 g ai/ha, read-out: Pigweed, Redroot damage rating (100=total damage to plant; 0=no damage to plant)
  pest or weed control at 15.625 g/ha: 0%
[5]; 62.5 g ai/ha, 100=total damage to plant, 0=no damage to plant, read-out: plant damage rating, Pigweed, Redroot
  pest or weed control at 62.5 g/ha: 20%
[5]; 250 g ai/ha, read-out: Pigweed, Redroot damage rating (100=total damage to plant; 0=no damage to plant)
  pest or weed control at 250 g/ha: 10%
[6]; 15.625 g ai/ha, read-out: Velvetleaf damage rating (100=total damage to plant; 0=no damage to plant)
  pest or weed control at 15.625 g/ha: 0%
[6]; 62.5 g ai/ha, 100=total damage to plant, 0=no damage to plant, read-out: plant damage rating, Velvetleaf
  pest or weed control at 62.5 g/ha: 10%
[6]; 250 g ai/ha, read-out: Velvetleaf damage rating (100=total damage to plant; 0=no damage to plant)
  pest or weed control at 250 g/ha: 20%
[7]; 15.625 g ai/ha, evaluated after 13 days (100=total damage to plant; 0=no damage to plant), read-out: Barnyardgrass damage rating
  pest or weed control at 15.625 g/ha: 0%
[7]; 62.5 g ai/ha, evaluated after 13 days, read-out: Barnyardgrass damage rating (100=total damage to plant; 0=no damage to plant)
  pest or weed control at 62.5 g/ha: 0%
[7]; 250 g ai/ha, evaluated after 13 days, read-out: damage to plant, Barnyardgrass (100=total damage to plant; 0=no damage to plant)
  pest or weed control at 250 g/ha: 20%
Corn (Zea mays) [8]; 15.625 g ai/ha, evaluated after 13 days (100=total damage to plant; 0=no damage to plant), read-out: Corn damage rating
  plant injury at 15.625 g/ha: 0%
Corn (Zea mays) [8]; 62.5 g ai/ha, evaluated after 13 days, read-out: Corn damage rating (100=total damage to plant; 0=no damage to plant)
  plant injury at 62.5 g/ha: 0%
Corn (Zea mays) [8]; 250 g ai/ha, evaluated after 13 days, read-out: damage to plant, Corn (100=total damage to plant; 0=no damage to plant)
  plant injury at 250 g/ha: 10%
[9]; 15.625 g ai/ha, evaluated after 13 days (100=total damage to plant; 0=no damage to plant), read-out: Foxtail, Giant damage rating
  pest or weed control at 15.625 g/ha: 0%
[9]; 62.5 g ai/ha, evaluated after 13 days, read-out: Foxtail, Giant damage rating (100=total damage to plant; 0=no damage to plant)
  pest or weed control at 62.5 g/ha: 0%
[9]; 250 g ai/ha, evaluated after 13 days, read-out: damage to plant, Foxtail, Giant (100=total damage to plant; 0=no damage to plant)
  pest or weed control at 250 g/ha: 50%
[10]; 15.625 g ai/ha, evaluated after 13 days (100=total damage to plant; 0=no damage to plant), read-out: Morningglory, Ivy-leaved damage rating
  pest or weed control at 15.625 g/ha: 0%
[10]; 62.5 g ai/ha, evaluated after 13 days, read-out: Morningglory, Ivy-leaved damage rating (100=total damage to plant; 0=no damage to plant)
  pest or weed control at 62.5 g/ha: 0%
[10]; 250 g ai/ha, evaluated after 13 days, read-out: damage to plant, Morningglory, Ivy-leaved (100=total damage to plant; 0=no damage to plant)
  pest or weed control at 250 g/ha: 20%
[11]; 15.625 g ai/ha, evaluated after 13 days (100=total damage to plant; 0=no damage to plant), read-out: Pigweed, Redroot damage rating
  pest or weed control at 15.625 g/ha: 0%
[11]; 62.5 g ai/ha, evaluated after 13 days, read-out: Pigweed, Redroot damage rating (100=total damage to plant; 0=no damage to plant)
  pest or weed control at 62.5 g/ha: 0%
[11]; 250 g ai/ha, evaluated after 13 days, read-out: damage to plant, Pigweed, Redroot (100=total damage to plant; 0=no damage to plant)
  pest or weed control at 250 g/ha: 10%
[12]; 15.625 g ai/ha, evaluated after 13 days (100=total damage to plant; 0=no damage to plant), read-out: Velvetleaf damage rating
  pest or weed control at 15.625 g/ha: 0%
[12]; 62.5 g ai/ha, evaluated after 13 days, read-out: Velvetleaf damage rating (100=total damage to plant; 0=no damage to plant)
  pest or weed control at 62.5 g/ha: 0%
[12]; 250 g ai/ha, evaluated after 13 days, read-out: damage to plant, Velvetleaf (100=total damage to plant; 0=no damage to plant)
  pest or weed control at 250 g/ha: 0%
